# Experimental data as given in patent US10988737B2, “Clinical gene signature-based human cell culture model and uses thereof” (priority 2015, dated 2021).
# “Also recorded” adds a separate entry of the source.
# Legend:
# [1] = system: PLS/HCC high risk genes in HBV-infected HepG2-NTCP cells; assay: Epigenetic inhibitors: 32-gene PLS/HCC risk signature in HBV-infected HepG2-NTCP cells; format: cell-based; details: only in HBV infected cells; C646 10 μM
# Experimental: (§1) HBV infection was assessed at day 10 post-infection by qRT-PCR quantification of HBV pregenomic RNA (pgRNA) as described in (Verrier et al., Hepatology, 2015, 63: 35-48).
# (§2) Transcriptional analyses. Ten days after HCV Jc1 and HBV infection or ethanol exposure, cultures were lysed using TRI-reagent (MRC) and RNA purified using the Directzol mini kit (Zymo Research). Gene expression profiling was performed using 250-500 ng total RNA by using either NCOUNTER Digital Analyzer system (NanoString) or high throughput qRT-PCR Biomark HD (Baker, Nature Meth., 2012, 9: 541-544) […]. Induction or suppression of HCC risk signature was determined by Gene Set Enrichment Analysis (GSEA), implemented in GenePattern genomic analysis toolkits.
# [2] = system: HCV Jc1; assay: HCV viral load in HCV Jc1-infected Huh7.5.1dif cells (qRT-PCR of intracellular HCV RNA); format: cell-based; details: for effect on HCV viral load: HCV-infected Huh7.5.1dif cells, at the concentrations that suppress the signature
# Experimental: HCV Infection of Huh7.5.1^dif cells. Cell culture-derived HCVcc Jc1 (genotype 2a/2a) (Pietschmann et al., PNAS USA, 2006, 103: 7408-7413) were generated in Huh7.5.1 cells as previously described (Wakita et al., Nat. Med., 2005, 11: 791-796). HCV Jc1E2^FLAG was purified using anti-FLAG M2 affinity gel (Sigma-Aldrich, St.Louis, Mo., USA) as described (Merz et al., J. Biol. Chem., 2011, 286: 3018-3032). HCVcc infectivity was determined by calculating the 50% tissue culture infectious doses (TCID50) as previously described (Lindenbach et al., Science, 2005, 309: 623-626). Huh7.5.1^dif cells were infected with HCV Jc1 or HCV Jc1E2^FLAG. Cell culture supernatants from mock-electroporated cells or 100 μg/mL of FLAG peptide were used for control experiments. HCV infection was assessed by qRT-PCR of intracellular HCV RNA (Xiao et al., PLoS Pathog., 2014, 10: e1004128) as well as immunostaining using HCV E2-specific AP33 antibody as previously described (Krieger et al., Hepatology, 2010, 51: 1144-1157).
# [3] = system: HCC high-risk genes in human fibrotic liver tissue; assay: Organotypic ex vivo culture of surgically resected human fibrotic liver tissue slices, PLS/HCC risk signature by GSEA; format: cell-based; details: erlotinib 5 μM, pioglitazone 10 μM
# Experimental: Liver Slices. Fresh liver tissue sections (300 μm-thick) were prepared from surgically resected fibrotic livers from HCC patients using Krumdieck Tissue Slicer MD6000 (Alabama Research and Development, Munford, Ala., USA).
# Transcriptional Analyses. Liver cells were lysed in TRI-reagent (Molecular Research Center; Cincinnati, Ohio, USA), and RNA was purified using Direct-zol RNA MiniPrep (Zymo Research, Irvine, Calif., USA) according to manufacturer's instructions. RNA quantity and RNA quality were assessed using NanoDrop (Thermo Scientific, Waltham, Mass., USA) and Bioanalyzer 2100 ([…]) with a quality cut-off of RNA Integrity Number >8. […] HCC high risk gene expression was analyzed by qRT-PCR using specific TaqMan Gene Expression Assays (Life Technologies, Carlsbad, Calif., USA) or the ANXA3 and GPX2 primer sets previously described (Pan et al., Stem Cells, 2015, 33: 354-366 and Brault et al., Gut, 2014, 65: 44-54, respectively). The expression of GAPDH mRNA was analyzed as a reference gene using a specific TaqMan Gene Expression Assay (Life Technologies, Carlsbad, Calif., USA) or the RT2 qPCR Primer Assay (Qiagen, Hilden, Germany). Relative gene expression level was calculated by the ΔΔCt method as previously described (Schmittgen et al., Nat. Protoc., 2008, 3: 1101-1108). […]
# [4] = system: HCC risk signature in HCV Jc1-infected Huh7.5.1^dif cells; assay: HCC risk signature in HCV Jc1-infected Huh7.5.1dif cells after antiviral or EGFR/MAPK pathway inhibitor treatment; format: cell-based, human; details: three days treatment from day 7 post-infection
# Experimental: HCV Infection of Huh7.5.1^dif cells. […] Huh7.5.1^dif cells were infected with HCV Jc1 or HCV Jc1E2^FLAG. […] HCV infection was assessed by qRT-PCR of intracellular HCV RNA (Xiao et al., PLoS Pathog., 2014, 10: e1004128) as well as immunostaining using HCV E2-specific AP33 antibody as previously described (Krieger et al., Hepatology, 2010, 51: 1144-1157).
# Transcriptional Analyses. Liver cells were lysed in TRI-reagent (Molecular Research Center; Cincinnati, Ohio, USA), and RNA was purified using Direct-zol RNA MiniPrep (Zymo Research, Irvine, Calif., USA) according to manufacturer's instructions. RNA quantity and RNA quality were assessed using NanoDrop (Thermo Scientific, Waltham, Mass., USA) and Bioanalyzer 2100 (IIlumina, San Diego, Calif., USA) with a quality cut-off of RNA Integrity Number >8. […] Gene expression profiling was performed using 250-500 ng total RNA by using either NCOUNTER Digital Analyzer system (NanoString) or the HumanHT-12 beadarray (Illumina, San Diego, Calif., USA). HCC high risk gene expression was analyzed by qRT-PCR using specific TaqMan Gene Expression Assays (Life Technologies, Carlsbad, Calif., USA) or the ANXA3 and GPX2 primer sets previously described (Pan et al., Stem Cells, 2015, 33: 354-366 and Brault et al., Gut, 2014, 65: 44-54, respectively). The expression of GAPDH mRNA was analyzed as a reference gene using a specific TaqMan Gene Expression Assay (Life Technologies, Carlsbad, Calif., USA) or the RT2 qPCR Primer Assay (Qiagen, Hilden, Germany). Relative gene expression level was calculated by the ΔΔCt method as previously described (Schmittgen et al., Nat. Protoc., 2008, 3: 1101-1108).
# Bioinformatics. Induction or suppression of HCC risk signature in HumanHT-12 beadarray (Illumina, San Diego, Calif., USA) data was determined as previously reported by using Nearest Template Prediction algorithm and Gene Set Enrichment Analysis (GSEA), implemented in GenePattern genomic analysis toolkits (Subramanian et al., PNAS USA, 2005, 102: 15545-15550; Hoshida, PLoS One, 2010, 5: e15543; Reich et al., Nat. Genet., 2006, 38: 500-501). Molecular pathway deregulations were determined in Molecular Signature Database (MSigDB, ver.4.0) (Liberzon et al., Bioinformatics, 2011, 27: 1739-1740) using GSEA (Subramanian et al., PNAS USA, 2005, 102: 15545-15550).
# [5] = system: ERK1/2; assay: Proteome Profiler Human Phospho-kinase Array in HCV-infected liver cells; format: cell-based; details: low inhibitor concentrations
# Experimental: Proteomic Analyses. For proteomic analyses, Huh7.5.1^dif cells that had undergone DMSO-mediated differentiation, were infected with HCV Jc1E2^FLAG (TCID50=10^7/mL) as described above. On day 7, receptor tyrosine kinase (RTK) phosphorylation was assessed in cell lysates using the Human Phospho-RTK Array Kit as previously described (Lupberger et al., Nat. Med., 2011, 17: 589-595; and Zona et al., Cell Host Microbe, 2013, 13: 302-313). The effect of MAPK inhibitors on signaling was confirmed using the Proteome Profiler Human Phospho-kinase Array according to manufacturer's instructions (R&D Systems). Amounts of phospho-proteins were assessed using a horseradish peroxidase-conjugated pan-phospho-tyrosine-specific antibody (R&D Systems, Minneapolis, Minn., USA) followed by chemiluminescence detection (GE Healthcare, Cleveland, Ohio, USA) according to manufacturer's instructions. The relative dot-blot density of the phosphorylated proteins in HCV Jc1E2^FLAG infected samples compared to non-infected controls was quantified using Image J software (NIH) by elliptical selection of individual dots and measuring standard deviation and integrated density.
# [6] = system: PLS/HCC high risk genes in HCV-infected or ethanol exposed Huh7.5.1^dif cells or HBV-infected HepG2-NTCP cells; assay: Epigenetic inhibitors: 32-gene PLS/HCC risk signature in infected or ethanol-treated liver cells; format: cell-based, human; details: iBET 0.05 μM, WDR5-0103 100 μM
# Experimental: HCV infection was assessed at day 10 by qRT-PCR of intracellular RNA as described (Xiao et al., PLoS pathogens. 2014, 10(5): e1004128).
# as §1
# Fresh medium containing ethanol and antibodies was replenished daily (Ye et al., Drug Alcohol Depend., 2010, 112: 107-116).
# as §2
compound,measurement,setting,value
CC1=NN(c2ccc(C(=O)O)cc2)C(=O)/C1=C\c1ccc(-c2cc(C)c(C)cc2[N+](=O)[O-])o1 [C646],PLS/HCC high risk genes,[1],suppressed
C#Cc1cccc(Nc2ncnc3cc(OCCOC)c(OCCOC)cc23)c1 [Erlotinib],effect on HCV viral load,[2],did not modify
same,PLS / HCC high-risk genes in ex vivo liver tissue,[3],effectively suppress; also recorded: reverted
same,HCC high-risk gene expression,[4],suppressed
Nc1[nH]nc2nnc(-c3c(-c4ccccc4)nn4ccccc34)cc12 [Fr180204],effect on HCV viral load,[2],absent effects
same,ERK1/2 phosphorylation (virus-induced MAPK signaling),[5],reduced
same,HCC high-risk gene expression,[4],suppressed
COC(=O)c1ccc(N2CCN(C)CC2)c(NC(=O)c2cccc(OC)c2)c1 [WDR5-0103],PLS/HCC high risk gene expression,[6],suppressed
Interferon-alpha 2a,decrease of viral load,"[2]; HCV Jc1-infected Huh7.5.1dif cells, three days treatment from day 7, 10 IU/mL interferon-alpha 2a or 1 nM daclatasvir + 1 μM sofosbuvir",about 100 fold
same,HCC high-risk gene expression,[4],partial suppression
same,HCC low-risk gene expression,[4],restoration
iBET,PLS/HCC high risk gene expression,[6],suppressed
